# From ChEMBL document CHEMBL1255217, “Bioisosteric replacement leading to biologically active [2.2]paracyclophanes with altered binding profiles for aminergic G-protein-coupled receptors” (J Med Chem, 2010)
# Calls of active or inactive are those of the source. The rule behind the calls is not given here.
# Assays:
# D(1A) dopamine receptor = D(1A) dopamine receptor (Sus scrofa, UniProt P50130); assay: Displacement of [3H]SCH23390 from dopamine D1 receptor in pig striatal membranes; format: cell membranes, Striatum, Membrane
# Sequence of D(1A) dopamine receptor (P50130 whole entry): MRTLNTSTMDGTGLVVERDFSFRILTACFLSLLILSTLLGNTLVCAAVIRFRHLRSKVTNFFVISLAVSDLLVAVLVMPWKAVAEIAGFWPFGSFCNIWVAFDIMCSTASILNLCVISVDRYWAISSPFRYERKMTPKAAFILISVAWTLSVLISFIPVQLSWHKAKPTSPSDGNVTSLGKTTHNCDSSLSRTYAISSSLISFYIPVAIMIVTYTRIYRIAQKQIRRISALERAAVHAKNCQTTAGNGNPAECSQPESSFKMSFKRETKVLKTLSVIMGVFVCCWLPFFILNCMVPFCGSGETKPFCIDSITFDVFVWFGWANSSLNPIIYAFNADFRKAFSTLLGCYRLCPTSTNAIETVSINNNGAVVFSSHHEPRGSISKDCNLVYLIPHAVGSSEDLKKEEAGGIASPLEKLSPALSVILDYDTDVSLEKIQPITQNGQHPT
# D(2) dopamine receptor [1] = biological target: T1, D(2) dopamine receptor (Homo sapiens, UniProt P14416); assay: Displacement of [3H]Spiperone from human dopamine D2 long receptor expressed in CHO cells; format: cell-based
# T1 sequence (P14416 whole entry): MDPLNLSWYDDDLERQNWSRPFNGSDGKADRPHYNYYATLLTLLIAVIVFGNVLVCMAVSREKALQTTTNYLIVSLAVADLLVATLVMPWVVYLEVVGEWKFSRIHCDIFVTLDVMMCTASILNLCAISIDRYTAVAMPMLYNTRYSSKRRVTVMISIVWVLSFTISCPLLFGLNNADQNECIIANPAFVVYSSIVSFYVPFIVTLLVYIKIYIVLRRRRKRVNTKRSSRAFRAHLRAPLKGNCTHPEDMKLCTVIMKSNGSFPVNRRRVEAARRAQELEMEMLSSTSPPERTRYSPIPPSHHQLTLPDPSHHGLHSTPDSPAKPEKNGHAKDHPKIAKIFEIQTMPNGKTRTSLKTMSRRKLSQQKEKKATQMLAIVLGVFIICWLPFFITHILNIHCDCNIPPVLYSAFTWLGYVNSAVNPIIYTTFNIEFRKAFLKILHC
# D(2) dopamine receptor [2] = biological target: T1, D(2) dopamine receptor; assay: Displacement of [3H]Spiperone from human dopamine D2 short receptor expressed in CHO cells; format: cell-based
# D(4) dopamine receptor = biological target: T2, D(4) dopamine receptor (Homo sapiens, UniProt P21917); assay: Displacement of [3H]Spiperone from human dopamine D4.4 receptor expressed in CHO cells; format: cell-based
# T2 sequence (P21917 whole entry): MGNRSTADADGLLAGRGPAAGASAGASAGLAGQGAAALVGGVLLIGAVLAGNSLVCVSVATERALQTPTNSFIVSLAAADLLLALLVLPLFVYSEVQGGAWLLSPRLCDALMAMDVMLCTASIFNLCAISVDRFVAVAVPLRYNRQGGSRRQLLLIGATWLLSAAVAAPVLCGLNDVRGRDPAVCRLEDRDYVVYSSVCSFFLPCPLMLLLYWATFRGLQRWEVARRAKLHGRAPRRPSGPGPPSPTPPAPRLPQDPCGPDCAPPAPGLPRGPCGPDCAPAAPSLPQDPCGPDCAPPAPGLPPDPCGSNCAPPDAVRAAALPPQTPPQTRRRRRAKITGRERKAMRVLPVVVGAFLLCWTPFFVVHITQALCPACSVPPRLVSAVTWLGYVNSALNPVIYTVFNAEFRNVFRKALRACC
# [3] = biological target: 5-hydroxytryptamine receptor 2A (Sus scrofa, UniProt P50129); assay: Displacement of [3H]Ketanserin from 5-HT2 receptor in pig cortex membranes; format: cell membranes
# Sequence of 5-hydroxytryptamine receptor 2A (P50129 whole entry): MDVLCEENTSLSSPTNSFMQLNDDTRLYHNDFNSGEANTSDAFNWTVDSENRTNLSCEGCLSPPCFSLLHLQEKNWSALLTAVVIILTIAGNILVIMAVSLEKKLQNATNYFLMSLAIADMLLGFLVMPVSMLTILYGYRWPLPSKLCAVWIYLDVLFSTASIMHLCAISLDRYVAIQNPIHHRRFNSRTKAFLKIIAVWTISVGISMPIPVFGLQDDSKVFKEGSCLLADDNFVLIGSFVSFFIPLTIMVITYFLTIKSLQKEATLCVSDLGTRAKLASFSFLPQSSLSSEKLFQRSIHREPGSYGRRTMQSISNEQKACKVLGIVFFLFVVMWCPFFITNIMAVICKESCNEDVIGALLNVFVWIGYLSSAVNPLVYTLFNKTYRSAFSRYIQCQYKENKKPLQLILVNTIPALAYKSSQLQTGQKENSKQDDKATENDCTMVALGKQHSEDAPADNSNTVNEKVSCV
# [4] = Displacement of [3H]Prazosin from adrenergic alpha1 receptor in pig cerebral cortex homogenates; format: tissue-based, Sus scrofa
# D(3) dopamine receptor [5] = biological target: T3, D(3) dopamine receptor (Homo sapiens, UniProt P35462); assay: Displacement of [3H]Spiperone from human dopamine D3 receptor expressed in CHO cells; format: cell-based
# T3 sequence (P35462 whole entry): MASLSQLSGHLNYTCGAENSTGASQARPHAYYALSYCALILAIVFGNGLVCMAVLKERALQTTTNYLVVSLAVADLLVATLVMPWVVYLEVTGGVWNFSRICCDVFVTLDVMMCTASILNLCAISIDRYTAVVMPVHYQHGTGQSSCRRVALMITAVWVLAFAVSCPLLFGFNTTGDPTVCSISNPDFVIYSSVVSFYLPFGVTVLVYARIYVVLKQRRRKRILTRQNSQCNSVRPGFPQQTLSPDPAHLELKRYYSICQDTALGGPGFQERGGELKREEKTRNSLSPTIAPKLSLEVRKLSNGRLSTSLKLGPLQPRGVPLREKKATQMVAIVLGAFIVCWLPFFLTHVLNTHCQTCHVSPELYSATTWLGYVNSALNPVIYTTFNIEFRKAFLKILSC
# D(3) dopamine receptor [6] = biological target: T3, D(3) dopamine receptor; assay: Agonist activity at human dopamine D3 receptor expressed in dhfr deficient CHO cells assessed as [3H]thymidine incorporation; format: functional, cell-based
# Homo sapiens [7] = organism: Homo sapiens; assay: Selectivity ratio of Ki for wild type human dopamine D3 receptor to Ki for human dopamine D3 receptor V2.61F mutant
# Homo sapiens [8] = organism: Homo sapiens; assay: Selectivity ratio of Ki for wild type human dopamine D3 receptor to Ki for human dopamine D3 receptor F6.52W mutant
Compound,Ki (D(1A) dopamine receptor),Ki (D(2) dopamine receptor [1]),Ki (D(2) dopamine receptor [2]),Ki (D(4) dopamine receptor),Ki [3],Ki [4],Ki (D(3) dopamine receptor [5]),Activity (D(3) dopamine receptor [6]),Ratio Ki (Homo sapiens [7]),Ratio Ki (Homo sapiens [8])
O=C(CCCN1CCN(c2ccc(Cl)cc2)CC1)c1ccc(F)cc1,340 nM,63 nM,61 nM,7.6 nM,440 nM,13 nM,–,–,–,–
Cc1ccc(C)c(C2(O)CCN(CCCC(=O)c3ccc(F)cc3)CC2)c1,19 nM,3.4 nM,6.5 nM,20 nM,110 nM,1.3 nM,27 nM,–,–,–
O=C(CCCN1CCC(O)(c2cc3ccc2CCc2ccc(cc2)CC3)CC1)c1ccc(F)cc1,100 nM,4.8 nM,3.6 nM,0.72 nM,19 nM,2.9 nM,53 nM,–,–,–
Cc1ccc(C)c(C(=O)CCCN2CCC(O)(c3ccc(Cl)cc3)CC2)c1,3800 nM,15 nM,43 nM,61 nM,690 nM,35 nM,73 nM,–,–,–
Cc1ccc(C)c(C(=O)NCCCCN2CCN(c3cc(C)ccc3C)CC2)c1,3200 nM,99 nM,86 nM,220 nM,3600 nM,29 nM,28 nM,–,–,–
O=C(CCCN1CCC(O)(c2ccc(Cl)cc2)CC1)c1cc2ccc1CCc1ccc(cc1)CC2,9800 nM,–,–,39 nM,2400 nM,–,17 nM,–,–,–
Cc1ccc(C)c(N2CCN(CCCC(=O)c3ccc(F)cc3)CC2)c1,210 nM,13 nM,16 nM,17 nM,850 nM,3.2 nM,76 nM,–,–,–
COc1ccccc1N1CCN(CCCCNC(=O)c2cc(C)ccc2C)CC1,2100 nM,22 nM,17 nM,23 nM,1500 nM,14 nM,4.7 nM,–,–,–
Cc1ccc(C)c(C(=O)CCCN2CCC(O)(c3cc(C)ccc3C)CC2)c1,590 nM,–,–,30 nM,1700 nM,11 nM,280 nM,–,–,–
O=C(CCCN1CCC(O)(c2ccc(Cl)cc2)CC1)c1ccc(F)cc1 [HALOPERIDOL],–,–,–,–,–,6.8 nM,–,–,–,–
O=C(CCCN1CCC(O)(c2cc3ccc2CCc2ccc(cc2)CC3)CC1)c1cc2ccc1CCc1ccc(cc1)CC2,4900 nM,–,–,30 nM,1200 nM,2800 nM,38 nM,–,–,–

# More lines, now with the values ahead:
Ki (D(1A) dopamine receptor),Ki (D(2) dopamine receptor [1]),Ki (D(2) dopamine receptor [2]),Ki (D(4) dopamine receptor),Ki [3],Ki [4],Ki (D(3) dopamine receptor [5]),Activity (D(3) dopamine receptor [6]),Ratio Ki (Homo sapiens [7]),Ratio Ki (Homo sapiens [8]),Compound
–,–,–,–,350 nM,14 nM,–,–,–,–,COc1ccccc1N1CCN(CCCCNC(=O)c2cc3ccccc3s2)CC1
5400 nM,620 nM,440 nM,120 nM,1700 nM,180 nM,410 nM,–,–,–,O=C(CCCN1CCN(c2ccc(Cl)cc2)CC1)c1cc2ccc1CCc1ccc(cc1)CC2
590 nM,19 nM,22 nM,120 nM,450 nM,71 nM,9.9 nM,–,–,–,O=C(CCCN1CCN(c2cc3ccc2CCc2ccc(cc2)CC3)CC1)c1ccc(F)cc1
4000 nM,83 nM,150 nM,880 nM,1000 nM,490 nM,1.6 nM,inactive,24,2.4,O=C(NCCCCN1CCN(c2cc3ccc2CCc2ccc(cc2)CC3)CC1)c1cc2ccccc2s1
7800 nM,32 nM,48 nM,170 nM,8200 nM,840 nM,4 nM,–,–,–,O=C(NCCCCN1CCN(c2cc3ccc2CCc2ccc(cc2)CC3)CC1)c1cc2ccc1CCc1ccc(cc1)CC2
680 nM,24 nM,18 nM,11 nM,2200 nM,4.2 nM,0.49 nM,–,–,–,COc1ccccc1N1CCN(CCCCNC(=O)c2cc3ccc2CCc2ccc(cc2)CC3)CC1
2400 nM,84 nM,65 nM,300 nM,1500 nM,20 nM,2.5 nM,–,40,38,Cc1ccc(C)c(N2CCN(CCCCNC(=O)c3cc4ccccc4s3)CC2)c1
